Results published in the supplement of paper PMC10307832.

How the values were obtained:
Experiment in all cases: relative viability (nuclei count vs DMSO), 5 days (fraction); higher = more cells survive
Alpelisib + Lapatinib = compound: Cc1nc(NC(=O)N2CCC[C@H]2C(N)=O)sc1-c1ccnc(C(C)(C)C(F)(F)F)c1 [Alpelisib] + CS(=O)(=O)CCNCc1ccc(-c2ccc3ncnc(Nc4ccc(OCc5cccc(F)c5)c(Cl)c4)c3c2)o1 [Lapatinib] (partner 2 µM)
Method in brief: (§1)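 Each reported value is a median over duplicate plates. It expresses relative viability: treated-well nuclei count divided by vehicle-well nuclei count. Lung cancer cell lines in 1536-well plates were dosed by pin tool a day after seeding, alone with one drug or with a fixed anchor-drug dose plus five library-drug doses (not always all listed) in √10 steps, and nuclei were counted after 5 days.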

Alpelisib + Dasatinib = compound: Cc1nc(NC(=O)N2CCC[C@H]2C(N)=O)sc1-c1ccnc(C(C)(C)C(F)(F)F)c1 [Alpelisib] + Cc1nc(Nc2ncc(C(=O)Nc3c(C)cccc3Cl)s2)cc(N2CCN(CCO)CC2)n1 [Dasatinib] (partner 0.075 µM)
Method in brief: as §1

Vemurafenib + AZD7762 = compound: CCCS(=O)(=O)Nc1ccc(F)c(C(=O)c2c[nH]c3ncc(-c4ccc(Cl)cc4)cc23)c1F [Vemurafenib] + NC(=O)Nc1cc(-c2cccc(F)c2)sc1C(=O)N[C@H]1CCCNC1 [AZD7762] (partner 0.2 µM)
Method in brief: as §1

Alpelisib + Linsitinib = compound: Cc1nc(NC(=O)N2CCC[C@H]2C(N)=O)sc1-c1ccnc(C(C)(C)C(F)(F)F)c1 [Alpelisib] + C[C@]1(O)C[C@@H](c2nc(-c3ccc4ccc(-c5ccccc5)nc4c3)c3c(N)nccn32)C1 [Linsitinib] (partner 1 µM)
Method in brief: as §1

Cell Line | relative viability (Alpelisib + Lapatinib; first compound 0.04 µM) | relative viability (Alpelisib + Lapatinib; first compound 0.1265 µM) | relative viability (Alpelisib + Lapatinib; first compound 0.4 µM) | relative viability (Alpelisib + Lapatinib; first compound 1.265 µM) | relative viability (Alpelisib + Lapatinib; first compound 4 µM) | relative viability (Alpelisib + Dasatinib; first compound 0.04 µM) | relative viability (Alpelisib + Dasatinib; first compound 0.1265 µM) | relative viability (Alpelisib + Dasatinib; first compound 0.4 µM) | relative viability (Alpelisib + Dasatinib; first compound 1.265 µM) | relative viability (Alpelisib + Dasatinib; first compound 4 µM) | relative viability (Vemurafenib + AZD7762; first compound 0.03162 µM) | relative viability (Vemurafenib + AZD7762; first compound 0.1 µM) | relative viability (Vemurafenib + AZD7762; first compound 1 µM) | relative viability (Alpelisib + Linsitinib; first compound 0.04 µM) | relative viability (Alpelisib + Linsitinib; first compound 0.1265 µM) | relative viability (Alpelisib + Linsitinib; first compound 0.4 µM) | relative viability (Alpelisib + Linsitinib; first compound 1.265 µM) | relative viability (Alpelisib + Linsitinib; first compound 4 µM) | relative viability (Vemurafenib + AZD7762; first compound 0.3162 µM)
NCI-H2405 | 1.07 | 0.945 | 1.18 | 0.783 | 0.781 | 0.208 | 0.191 | 0.216 | 0.19 | 0.197 | 0.709 | 0.696 | 0.721 | 1.07 | 0.935 | 1.02 | 0.781 | 0.847 | –
NCI-H727 | 0.831 | 0.766 | 0.906 | 0.578 | 0.443 | 0.424 | 0.326 | 0.476 | 0.313 | 0.272 | 0.555 | 0.468 | 0.59 | 0.292 | 0.306 | 0.388 | 0.27 | 0.177 | 0.744
IA-LM | 0.977 | 0.802 | 0.842 | 0.708 | 0.74 | – | – | – | – | – | – | – | – | 0.565 | 0.424 | 0.829 | 0.616 | 0.493 | –
SK-LU-1 | 1.07 | 0.707 | 0.858 | 0.767 | 0.704 | 0.141 | 0.149 | 0.133 | 0.128 | 0.0997 | – | – | – | 1.22 | 1.14 | 1.27 | 0.939 | 1.06 | –
HCC-44 | 1.12 | 1.02 | 1.05 | 0.877 | 0.893 | – | – | – | – | – | 0.945 | 0.975 | 1.03 | 0.707 | 0.7 | 0.738 | 0.582 | 0.543 | 1.2
NCI-H1703 | 0.949 | 0.886 | 0.789 | 0.526 | 0.678 | – | – | – | – | – | 0.12 | – | 0.101 | 0.899 | 0.631 | 0.661 | 0.438 | 0.354 | –
LCLC-103H | – | – | – | – | – | 0.45 | 0.442 | 0.468 | 0.418 | 0.359 | 0.757 | 0.741 | 0.694 | 1.07 | 1.19 | 1.25 | 0.892 | 0.76 | 0.617
NCI-H1563 | 0.873 | 0.941 | 1.03 | 0.857 | 0.868 | 0.474 | 0.395 | 0.434 | 0.386 | 0.375 | – | – | – | 1.18 | 1.19 | 1.2 | 1.06 | 1.19 | –
NCI-H661 | 0.471 | 0.475 | 0.525 | 0.383 | 0.361 | 0.845 | 0.745 | 0.8 | 0.569 | 0.526 | – | – | – | 0.58 | 0.573 | 0.613 | 0.439 | 0.458 | –
NCI-H2009 | 0.99 | 1 | 1.11 | 0.89 | 0.889 | 0.309 | 0.281 | 0.353 | 0.223 | 0.198 | – | – | – | 1.2 | 1.12 | 1.27 | 1.19 | 1.12 | –
